In the assay the test system is latent HIV-1 infection in human PBMCs. Briefly: Reactivation of latent HIV-1 in in vitro infected, EGFP-negative sorted human PBMCs. The settings on record: representative donor, 24 h post stimulation, untreated background 0.23%. It is filed as cell-based. Here is the method: PBMCs from three different donors were infected with HIV-1 NLENG1-IRES and on day three post infection were treated with indinavir to inhibit de novo infection. On day seven following infection, HIV-1 expressing EGFP^+ cells were removed from the cultures using fluorescence activated cell sorting. (A) Following the sorting procedure, the EGFP-negative cells were cultured in supplemented RPMI 1640 to determine levels of spontaneous reactivation (Control), stimulated with anti-CD3 antibody clone UCHT1 (CD3), the costimulatory anti-CD28 antibody clone CD28.2 (cCD28) and with a combination of these two antibodies (cCD28/CD3). […] Numbers indicate the percentage of EGFP positive cells and the mean channel fluorescence intensity of the EGFP-positive cell population. […]
In vitro generation and analysis of HIV-1 latency in PBMCs. […] In the absence of IL-2, the cells were cultured for seven days following infection and then subjected to fluorescence activated cell sorting (FACS) to remove EGFP positive, HIV-1 expressing cells. The EGFP negative cell fraction was then activated with the indicated stimuli and reactivation of latent HIV-1 expression was measured 24 h post stimulation by determining EGFP fluorescence using FACS analysis. […]

Results on one compound are retold here after patent publication US20080118494A1, “Compositions For Detection Of Latent Hiv Reactivation And Methods Of Using The Same” (priority 2004, published 2008).

Take `CCCCCCCCCCCCCC(=O)O[C@@H]1[C@@H](C)[C@@]2(O)[C@@H](C=C(CO)C[C@]3(O)C(=O)C(C)=C[C@@H]23)[C@@H]2C(C)(C)[C@]12OC(C)=O` [PMA, 13-phorbol-12-myristate acetate]: the “HIV-1 reactivation as percentage of EGFP+ cells” value was found to be 0.60%.
